Measurements from US20130210633A1, “METHOD FOR REDUCING WATER STRESS IN PLANTS” (SUMITOMO CHEMICAL COMPANY, LIMITED, priority 2010, published 2013).
Structures can show the parent of a compound that is named as a salt.

System: rice (cultivar: Nipponbare)
Test: Evaluation test for reduction of drought stress by rice seed treatment (plant weight)
Type: in vivo
Conditions: with drought stress conditions; for Ratio to non-treated group: fresh weight of above-ground part; for Fresh weight of the above-ground part: seed treatment, average of 3 repetitions
Procedure: Evaluation Test for Reduction of Drought Stress by Rice Seed Treatment (Plant Weight) A Blank slurry solution containing 5% (V/V) color coat red (Becker Underwood, Inc.), 5% (V/V) CF-Clear (Becker Underwood, Inc.) and 0.4% Maxim XL (Syngenta) was prepared. A sodium salt of the compound “A” was dissolved in the Blank slurry to obtain a slurry solution containing the sodium salt of the compound “A” in a concentration of 333 to 10,000 ppm. In a 50-ml centrifuge tube made of a plastic, 300 μl of the above slurry solution was added to 10 g of rice seeds (cultivar: Nipponbare), followed by stirring for 3 to 5 minutes and further drying of the seeds. As a control, seeds treated by using the Blank slurry in place of the above slurry solution were used as seeds for a non-treated group. On wells of a 406-well plug plate, a filter paper was placed and rice seeds subjected to the above seed treatment were sown on the filter paper. Using a two-fold diluted Kimura B water culture solution (Plant Science 119: 39-47 (1996)), cultivation was performed for 14 days under the conditions of a temperature of 28° C./23° C. (day/night), an illuminance of 8,500 1× and a day length of 12 hours to obtain test plants. Test plants (each 5 seedlings) were placed in an empty 35 ml flat-bottomed test tube ([…]/manufactured by Sarstedt) and then left to stand for 2 days without being capped (this was used as a test group with the drought stress conditions). As a test group without the drought stress conditions, the test plants (each 5 seedlings) were placed in a centrifuge tube filled with 10 ml of a two-fold diluted Kimura B water culture solution, and then left to stand for 2 days without being capped. After that, the plants (each 5 seedlings) were transplanted to a plastic pot (N-71-130G, manufactured by TOKAN KOGYO CO., LTD.) filled with the field soil which had been subjected to a sterilization treatment and then cultivated for 14 days under the conditions of a temperature of 28° C./23° C. (day/night), an illuminance of 8,500 1× and a day length of 12 hours while performing bottom-surface irrigation. After the drought stress treatment, the fresh weight of the above-ground part of the five individuals of test plants in each test group was collectively measured and an average of 3 repetitions of each test group was determined. As a result, the fresh weight of the above-ground part of the test group in the present invention was apparently large as compared with the control and drought stress was reduced.

O=C(O)CCC(=O)NCCc1ccccc1 [Compound A, Na salt, 4-oxo-4-(2-phenylethyl)aminobutyric acid]
Ratio to non-treated group (0.01 mg/g of seeds): 105%
Ratio to non-treated group (0.1 mg/g of seeds): 105%
Ratio to non-treated group (0.25 mg/g of seeds): 119%
Ratio to non-treated group (0.3 mg/g of seeds): 121%
Fresh weight of the above-ground part (amount of chemical 0.01 mg/g of seeds): 0.73 g/5 seedlings
Fresh weight of the above-ground part (amount of chemical 0.1 mg/g of seeds): 0.73 g/5 seedlings
Fresh weight of the above-ground part (amount of chemical 0.25 mg/g of seeds): 0.83 g/5 seedlings
Fresh weight of the above-ground part (amount of chemical 0.3 mg/g of seeds): 0.84 g/5 seedlings
